Measured values as given in publication PMC3479019, “Identification and functional analysis of gene cluster involvement in biosynthesis of the cyclic lipopeptide antibiotic pelgipeptin produced by Paenibacillus elgii” (BMC Microbiology, 2012).

Legend:
Test in all cases: amino acid adenylation, pyrophosphate release, inorganic pyrophosphatase / malachite green, […] nm
Format in all cases: biochemical
Conditions in all cases: 5 mM ATP, 10 mM MgCl2, 6 mM amino acid, 100 mM NaCl, 50 mM Tris-HCl pH 7.5, 25 °C
[1] = target: T1, PlpD A1 (Paenibacillus elgii, UniProt I1Z6A2)
T1 construct: pET28a, E. coli BL21(DE3), Ni-purified, His-tag (C-terminal by primers, inferred); borders by primers plpD-A1-F/R, N-term MENILT, C-term GAEYE then LE-tag (translated from primers)
T1 sequence (I1Z6A2 446-978): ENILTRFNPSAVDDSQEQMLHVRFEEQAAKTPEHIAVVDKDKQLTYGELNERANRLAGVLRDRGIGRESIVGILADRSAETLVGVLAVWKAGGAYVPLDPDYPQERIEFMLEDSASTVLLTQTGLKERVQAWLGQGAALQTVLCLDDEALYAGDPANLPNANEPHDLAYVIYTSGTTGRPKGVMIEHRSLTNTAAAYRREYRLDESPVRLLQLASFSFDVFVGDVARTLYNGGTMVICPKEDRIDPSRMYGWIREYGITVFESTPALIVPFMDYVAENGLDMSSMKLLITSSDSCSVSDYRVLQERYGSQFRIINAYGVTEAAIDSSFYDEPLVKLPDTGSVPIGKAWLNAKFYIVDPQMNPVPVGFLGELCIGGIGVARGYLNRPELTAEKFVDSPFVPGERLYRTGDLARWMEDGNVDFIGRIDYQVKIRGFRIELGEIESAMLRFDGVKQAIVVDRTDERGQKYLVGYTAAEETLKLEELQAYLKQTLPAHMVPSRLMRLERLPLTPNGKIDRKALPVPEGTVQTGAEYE

[2] = target: T2, PlpE A3 (Paenibacillus elgii, UniProt I1Z6A3)
T2 construct: pET28a, E. coli BL21(DE3), Ni-purified, His-tag (C-terminal by primers, inferred); borders by primers plpE-A3-F/R, N-term MAAEQT, C-term ADYVA then KL-tag (translated from primers)
T2 sequence (I1Z6A3 2324-2843): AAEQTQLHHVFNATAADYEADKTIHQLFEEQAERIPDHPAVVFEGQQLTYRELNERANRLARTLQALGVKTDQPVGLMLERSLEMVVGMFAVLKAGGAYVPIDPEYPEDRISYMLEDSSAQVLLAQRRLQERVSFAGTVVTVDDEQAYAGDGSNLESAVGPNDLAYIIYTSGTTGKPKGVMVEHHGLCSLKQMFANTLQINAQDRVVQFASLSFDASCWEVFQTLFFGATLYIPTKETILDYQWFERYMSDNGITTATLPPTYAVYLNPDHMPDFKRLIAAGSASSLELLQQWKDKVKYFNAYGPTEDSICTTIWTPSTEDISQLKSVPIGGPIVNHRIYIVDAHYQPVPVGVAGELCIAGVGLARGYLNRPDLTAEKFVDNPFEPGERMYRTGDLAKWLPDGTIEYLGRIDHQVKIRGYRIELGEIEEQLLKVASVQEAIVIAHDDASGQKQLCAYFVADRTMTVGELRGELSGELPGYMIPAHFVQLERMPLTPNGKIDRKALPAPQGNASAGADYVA

[3] = target: T3, PlpF A1 (Paenibacillus elgii, UniProt I1Z6A4)
T3 construct: pET28a, E. coli BL21(DE3), Ni-purified, His-tag (N-terminal by primers, stop codon in reverse primer, inferred); borders by primers plpF-A1-F/R, N-term (AS)LSDSE, C-term TGLE (translated from primers)
T3 sequence (I1Z6A4 entry or part of it): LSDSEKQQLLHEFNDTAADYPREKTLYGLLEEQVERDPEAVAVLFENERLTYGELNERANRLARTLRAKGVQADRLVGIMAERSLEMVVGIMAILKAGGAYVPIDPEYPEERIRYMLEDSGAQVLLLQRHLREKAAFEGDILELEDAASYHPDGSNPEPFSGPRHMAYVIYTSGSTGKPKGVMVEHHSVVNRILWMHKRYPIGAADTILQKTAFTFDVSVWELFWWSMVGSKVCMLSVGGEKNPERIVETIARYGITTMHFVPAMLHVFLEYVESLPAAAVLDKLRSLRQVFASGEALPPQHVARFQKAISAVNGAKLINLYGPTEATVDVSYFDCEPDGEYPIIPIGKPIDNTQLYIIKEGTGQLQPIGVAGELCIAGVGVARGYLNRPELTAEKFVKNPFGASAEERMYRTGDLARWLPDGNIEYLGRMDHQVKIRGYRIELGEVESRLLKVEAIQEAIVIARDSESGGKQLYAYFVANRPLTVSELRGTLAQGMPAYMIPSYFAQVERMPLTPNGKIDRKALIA

Compound: NCC[C@H](N)C(=O)O [L-Dab]
- amino acid adenylation, pyrophosphate release, inorganic pyrophosphatase / malac [1]: PlpD A1, PlpE A3, and Plp F A1 clearly exhibited the highest activity for L-Dab

Compound: N[C@@H](Cc1ccccc1)C(=O)O [L-Phe]
- amino acid adenylation, pyrophosphate release, inorganic pyrophosphatase / malac [2]: clearly exhibited the highest activity for L-Dab, L-Phe, and L-Ser, respectively

Compound: N[C@@H](CO)C(=O)O [L-Ser]
- amino acid adenylation, pyrophosphate release, inorganic pyrophosphatase / malac [3]: clearly exhibited the highest activity for L-Dab, L-Phe, and L-Ser, respectively
